Assays:
[1] = The effective dose for inhibition of LTD4-induced wheal formation after oral administration; type: functional
[2] = Compound was tested for spasmogenic activity of LTE4 on lung strips; type: functional
[3] = Compound was tested for spasmogenic activity of LTC4 on lung strips; type: functional
[4] = species: Rattus norvegicus; assay: The compound was tested for inhibition of [3H]LTD4 binding to lung membrane; type: functional
[5] = Compound was tested for spasmogenic activity of LTD4 on lung strips; type: functional
[6] = The effective dose for inhibition of anaphylactic death after oral administration; type: functional
[7] = biological target: T1, Polyunsaturated fatty acid 5-lipoxygenase (Rattus norvegicus) (UniProt P12527); assay: The compound was tested for inhibition against 5-lipoxygenase in rat polymorphonuclear leukocytes[PMNS] at 10 uM concentration; type: cell-based
T1 sequence (whole entry): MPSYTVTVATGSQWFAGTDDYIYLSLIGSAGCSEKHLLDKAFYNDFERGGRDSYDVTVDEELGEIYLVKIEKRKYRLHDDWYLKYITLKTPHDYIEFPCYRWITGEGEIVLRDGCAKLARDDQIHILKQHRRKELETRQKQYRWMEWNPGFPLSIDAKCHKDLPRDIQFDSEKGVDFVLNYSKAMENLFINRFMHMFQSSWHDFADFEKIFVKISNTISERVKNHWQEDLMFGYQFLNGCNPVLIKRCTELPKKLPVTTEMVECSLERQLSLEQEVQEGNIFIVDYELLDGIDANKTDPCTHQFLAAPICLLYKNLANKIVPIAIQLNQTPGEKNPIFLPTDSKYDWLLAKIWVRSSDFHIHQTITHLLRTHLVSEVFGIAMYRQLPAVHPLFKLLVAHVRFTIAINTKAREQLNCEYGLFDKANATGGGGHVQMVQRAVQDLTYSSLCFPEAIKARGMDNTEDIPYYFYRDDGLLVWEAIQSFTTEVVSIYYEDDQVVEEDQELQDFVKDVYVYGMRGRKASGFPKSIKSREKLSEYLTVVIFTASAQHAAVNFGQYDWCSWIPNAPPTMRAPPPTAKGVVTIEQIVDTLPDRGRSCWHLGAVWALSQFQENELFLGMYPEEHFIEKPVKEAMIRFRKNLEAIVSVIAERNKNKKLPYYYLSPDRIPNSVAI

[8] = biological target: T2, Polyunsaturated fatty acid 5-lipoxygenase (Homo sapiens, UniProt P09917)
T2 sequence (P09917 whole entry): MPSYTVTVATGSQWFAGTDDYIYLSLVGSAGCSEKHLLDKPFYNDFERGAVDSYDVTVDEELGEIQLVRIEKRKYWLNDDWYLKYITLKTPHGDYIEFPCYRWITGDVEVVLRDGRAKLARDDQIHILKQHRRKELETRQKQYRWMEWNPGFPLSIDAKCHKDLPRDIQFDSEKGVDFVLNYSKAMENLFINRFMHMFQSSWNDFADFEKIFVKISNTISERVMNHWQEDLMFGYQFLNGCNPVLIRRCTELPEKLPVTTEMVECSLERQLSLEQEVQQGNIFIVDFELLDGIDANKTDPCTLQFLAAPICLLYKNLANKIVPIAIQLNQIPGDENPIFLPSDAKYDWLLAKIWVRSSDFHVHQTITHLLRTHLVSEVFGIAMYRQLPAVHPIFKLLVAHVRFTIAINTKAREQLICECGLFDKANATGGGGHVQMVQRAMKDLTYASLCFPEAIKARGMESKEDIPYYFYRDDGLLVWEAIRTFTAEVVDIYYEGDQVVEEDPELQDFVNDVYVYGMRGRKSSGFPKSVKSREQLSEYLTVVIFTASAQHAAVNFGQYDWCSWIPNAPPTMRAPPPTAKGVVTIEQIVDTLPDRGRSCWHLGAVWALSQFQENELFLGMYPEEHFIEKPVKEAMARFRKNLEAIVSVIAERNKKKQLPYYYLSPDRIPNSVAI
Description: The compound was tested for inhibitory activity against 5-Lipoxygenase in human polymorphonuclear leukocytes[PMNS]

[9] = biological target: Cyclooxygenase (Rattus norvegicus) (UniProt P35355+Q63921); assay: The compound was tested for inhibition against Prostaglandin G/H synthase in rat polymorphonuclear leukocytes[PMNS] at 10 uM concentration; type: cell-based
[10] = biological target: T3, Polyunsaturated fatty acid 5-lipoxygenase (Rattus norvegicus, UniProt P12527); assay: The compound was tested for inhibitory activity against 5-lipoxygenase in rat polymorphonuclear leukocytes[PMNS]; type: cell-based
T3 sequence (P12527 whole entry): T1 sequence (whole entry)

[11] = species: Cavia porcellus; assay: The compound was tested for inhibitory activity against LTD4-induced contractions of guinea pig ileum; type: functional
[12] = biological target: T4, Cyclooxygenase (Rattus norvegicus, UniProt P35355+Q63921); assay: The compound was tested for inhibitory activity against Prostaglandin G/H synthase in rat polymorphonuclear leukocytes[PMNS]; type: cell-based
T4 sequence (P35355 whole entry): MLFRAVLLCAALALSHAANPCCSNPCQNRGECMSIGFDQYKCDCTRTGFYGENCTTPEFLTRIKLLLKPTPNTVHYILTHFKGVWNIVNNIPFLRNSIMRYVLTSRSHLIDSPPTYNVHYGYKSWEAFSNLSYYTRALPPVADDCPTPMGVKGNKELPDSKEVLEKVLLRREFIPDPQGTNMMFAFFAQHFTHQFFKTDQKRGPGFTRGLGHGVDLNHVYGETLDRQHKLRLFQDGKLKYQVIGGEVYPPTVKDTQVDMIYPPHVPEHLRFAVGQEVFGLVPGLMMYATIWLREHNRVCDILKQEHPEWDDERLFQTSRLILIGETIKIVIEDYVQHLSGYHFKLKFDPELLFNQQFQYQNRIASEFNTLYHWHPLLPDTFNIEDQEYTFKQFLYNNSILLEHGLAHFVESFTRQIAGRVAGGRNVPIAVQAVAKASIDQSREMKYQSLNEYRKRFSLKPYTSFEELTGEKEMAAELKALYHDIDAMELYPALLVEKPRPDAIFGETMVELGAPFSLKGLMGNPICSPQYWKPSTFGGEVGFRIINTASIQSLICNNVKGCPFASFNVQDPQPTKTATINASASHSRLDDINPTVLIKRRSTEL
T4 sequence (Q63921 whole entry): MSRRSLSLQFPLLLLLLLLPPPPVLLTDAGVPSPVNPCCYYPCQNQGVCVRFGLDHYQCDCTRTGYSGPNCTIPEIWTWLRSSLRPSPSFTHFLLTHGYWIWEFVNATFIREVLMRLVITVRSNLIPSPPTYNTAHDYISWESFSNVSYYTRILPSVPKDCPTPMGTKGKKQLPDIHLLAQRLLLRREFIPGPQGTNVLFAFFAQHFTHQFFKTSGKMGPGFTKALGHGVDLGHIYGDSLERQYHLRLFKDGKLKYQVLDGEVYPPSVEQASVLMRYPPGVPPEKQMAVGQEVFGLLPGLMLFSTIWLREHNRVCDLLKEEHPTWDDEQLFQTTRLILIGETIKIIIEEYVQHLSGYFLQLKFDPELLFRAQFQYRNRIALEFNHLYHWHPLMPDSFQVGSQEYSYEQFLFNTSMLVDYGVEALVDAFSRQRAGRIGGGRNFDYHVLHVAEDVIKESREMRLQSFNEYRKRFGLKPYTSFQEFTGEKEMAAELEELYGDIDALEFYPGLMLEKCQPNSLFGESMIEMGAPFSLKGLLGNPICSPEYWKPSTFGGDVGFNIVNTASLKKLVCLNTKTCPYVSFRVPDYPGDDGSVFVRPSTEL

[13] = biological target: T5, Cysteinyl leukotriene receptor 1 (Cavia porcellus, UniProt Q2NNR5); assay: The compound was tested for binding affinity against Cysteinyl leukotriene D4 receptor in a soluble guinea pig LTD4 receptor preparation
T5 sequence (Q2NNR5 whole entry): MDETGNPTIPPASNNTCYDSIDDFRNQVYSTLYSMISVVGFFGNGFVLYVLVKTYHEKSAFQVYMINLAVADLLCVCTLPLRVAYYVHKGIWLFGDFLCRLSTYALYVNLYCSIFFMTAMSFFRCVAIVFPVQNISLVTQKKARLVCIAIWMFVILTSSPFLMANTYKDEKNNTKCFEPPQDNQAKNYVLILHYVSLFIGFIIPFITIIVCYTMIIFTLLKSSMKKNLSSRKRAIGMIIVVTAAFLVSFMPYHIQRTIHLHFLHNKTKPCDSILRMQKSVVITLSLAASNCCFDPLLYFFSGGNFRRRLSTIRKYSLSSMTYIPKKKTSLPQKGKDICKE

[14] = species: Cavia porcellus; assay: The compound was tested for blocking of LTD4-induced contractions of guinea pig trachea; type: functional; conditions: read-out: pA2 (converted)
[15] = test system: Cavia porcellus; assay: The compound was tested for inhibition of LTD4 response in guinea pig bronchoconstriction assay after intraduodenal administration (30 mg/kg)
[16] = species: Cavia porcellus; assay: The compound was tested for binding affinity against guinea pig lung membrane using [3H]LTD4 as radioligand
[17] = species: Cavia porcellus; assay: The compound was tested for inhibition of LTD4-induced bronchoconstriction in guinea pig; type: functional
[18] = biological target: T3, Polyunsaturated fatty acid 5-lipoxygenase; assay: The compound was tested for inhibitory activity against 5-lipoxygenase using rat polymorphonuclear leukocytes[PMNS]
[19] = The compound was tested for inhibitory activity against Leukotriene B4 receptor in mouse mastocytoma
[20] = species: Cavia porcellus; assay: The effective dose for inhibition of LTD4-induced contractions of guinea pig trachea; type: functional

c1ccc(Cc2nn[nH]n2)c(COc2ccc(OCc3ccc4ccccc4n3)cc2)c1 [RG-12525]
ED50 [1]: 5 mg/kg | Kb [2]: 2.7 nM | Kb [3]: 2.7 nM | Ki [4]: 3 nM | Kb [5]: 2.7 nM | ED50 [6]: 2.2 mg/kg

O=C(O)Cc1ccc(-c2ccc(OCc3ccc4ccccc4n3)cc2)c(F)c1
Inhibition [7]: 100%

CSc1ccccc1/C=C/C(=O)N(C)O
IC50 [8]: 100 nM

CCc1cc(OCc2ccc3ccccc3n2)cc2c3c([nH]c12)C(CC)(CC(=O)O)OCC3 (stereo unspecified)
Inhibition [9]: 47% | Inhibition [7]: 91%

CCCc1c(OCC(O)COc2cccc(NC(=O)C(=O)OCC)c2C#N)ccc(C(C)=O)c1O (stereo unspecified)
IC50 [10]: 32000 nM

O=C(O)c1ccccc1Nc1cccc(OCc2ccc3ccccc3n2)c1 [SR-2640]
IC50 [11]: 3 nM | IC50 [12]: 2000 nM | IC50 [10]: 10000 nM

CCCc1c(OCCCCc2nnn[nH]2)ccc(C(C)=O)c1O [TOMELUKAST]
Ki [13]: 60 nM | Kb [14]: 209 nM

CCCCCC(O)c1cccc(OCc2ccc3ccccc3n2)c1 (stereo unspecified) [REV-5901]
Inhibition [15]: 74% | Ki [16]: 700 nM

Oc1ccccc1OCc1ccc2ccccc2n1
Inhibition [17]: 28% | IC50 [18]: 53000 nM | IC50 [12]: 5820 nM

CCOC(=O)Oc1ccc(/C=C/C=C/C(=O)NCCN2CCC(OC(c3ccccc3)c3ccccc3)CC2)cc1OC [LINETASTINE]
IC50 [19]: 320 nM

c1cc(Cc2nnn[nH]2)cc(OCc2ccc3ccccc3n2)c1
IC50 [12]: 13400 nM | ED50 [20]: 0.4 mg/kg | IC50 [10]: 6200 nM

CCCCC[C@H](O)c1cccc(OCc2cccc(CC(=O)O)c2)c1
IC50 [10]: 2500 nM

From ChEMBL document CHEMBL1125472, “5-lipoxygenase: properties, pharmacology, and the quinolinyl(bridged)aryl class of inhibitors” (J Med Chem, 1992)
